# In patent US20260042754A1, “Substituted Bicyclic Heteroaryl Sulfonamide Derivatives for the Treatment of Cancer” (NODUS ONCOLOGY LIMITED, priority 2022, published 2026):
# Read-outs that look alike come from different tables or passages of the source.
# Assays:
# [1] = tested on: RMUG-S mucinous cystadenocarcinoma ovarian cancer cell line; assay: Cell proliferation assay (CellTiter-Glo), RMUG-S, Examples 1-11; format: cell-based; conditions: Examples 1-11: 96-well, 5000 cells per well, 120 hours; highest concentration tested 9000 nM; read-out: RMUG-S GI50 (high PARG dependency)
# Description: For Examples 1-11, RMUG-S mucinous cystadenocarcinoma (JCRB, #IF050320) and TOV-112D endometrioid adenocarcinoma (ATCC, #CRL-11731) ovarian cancer cell lines were grown in DMEM/F-12 with glutamine (BioConcept, #1-26F09-I) and RPMI with glutamine (BioConcept, #1-41F03-1), respectively, and both media containing 10% FBS (Sigma-Aldrich, #F9665) and supplemented with 1% Penicillin-Streptomycin (BioConcept, #4-01F00-H) using standard cell culture techniques. RMUG-S and TOV-112D ovarian cancer cell lines were selected as highly PARG dependent and having low PARG dependency, respectively, based on their publically available PARG shRNA (short hairpin ribonucleic acid) dropout profiles in the Cancer Dependency Map (DepMap) data portal (Broad Institute DepMap Project; Cheung H W et al, Proceedings of the National Academy of Sciences 2011; Cowley G S et al, Scientific Data 2014; McDonald E R et al, Cell 2017). PARG dependency of these cell lines was independently verified and confirmed by genetic and pharmacological means using shRNA-mediated PARG depletion, and the previously reported cell-permeable quinazolinedione PARG inhibitor tool compound PDD00017273 (Pillay N et al, Cancer Cell 2019). Thus, growth inhibition of the RMUG-S cell line serves as a functional on-target inhibition readout, while observing potent growth inhibition of TOV-112D is indicative of compound off-target activity. Cells were seeded in 96-well plates with clear bottom (Huberlab, #7.655 090) at a seeding density of 5000 cells per well in 100 μL of medium, and the plates were incubated overnight at 37° C. with 5% CO2 prior to treatment with compounds. Experimental compounds were prepared in DMSO at a concentration of 10 mM. Compounds were distributed at the desired final concentrations using the Tecan D300e Digital Dispenser (TECAN) and normalized to the highest DMSO volume. The plates were incubated for 120 hours and cell numbers were then measured using CellTiter-Glo® (Promega, #G9241), essentially as recommended by the manufacturer. Briefly, for the CellTiter-Glo® proliferation readout, 50 μL of the reconstituted CellTiter-Glo® 2.0 Reagent were added to 100 μL of medium containing cells. The plates were incubated at room temperature for 10 minutes to stabilize the luminescent signal, and luminescence intensity signals were then measured with a Synergy 4™ microplate reader (BioTek Instruments). Relative proliferation values were calculated by normalizing the raw data using DMSO-treated cells (100% proliferation) and the signals obtained from cells that were evaluated at the time of compound addition (0% proliferation). The concentration-response data were fitted to a sigmoidal 4-parameter logistic model with the maximum constrained to 100%. GI50 values were calculated from the curves as the compound concentrations reducing proliferation to 50%.
# NCI-H1650 = assay: Modified cell proliferation assay (CellTiter-Glo), NCI-H1650; format: cell-based; conditions: modified protocol, 384-well, 300 cells per well, 120 h, highest concentration tested 30000 nM, read-out: NCI-H1650 GI50 (high PARG dependency)
# Outline: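 NCI-H1650 or RMUG-S cells seeded at 300 cells/well in RPMI1640 with 10% FCS, compounds added after 24 h, then 120 h at 37 °C/5% CO2. Viability read by CellTiter-Glo luminescence; IC50 from fitted dose-response inflection point. Z′≥0.5 required.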
SMILES,GI50 [1],"GI50 (NCI-H1650; Homo sapiens, NCI-H1650)",GI50 (NCI-H1650)
"CO/N=c1\[nH]c2ccc(S(=O)(=O)NC3(C)COC3)cc2c(=O)n1Cc1cnn(C)c1 [Example 2, 2-methoxyimino-N-(3-methyloxetan-3-yl)-3-[(1-methylpyrazol-4-yl)methyl]-4-oxo-1H-quinazoline-6-sulfonamide]",2 to 9 µM,0.5 to 2 µM,
"Cc1nc(C)c(CO/N=c2\[nH]c3ccc(S(=O)(=O)NC4(C)CC4)cc3c(=O)n2Cc2cnn(C)c2)s1 [Example 3, 2-[(2,4-dimethylthiazol-5-yl)methoxyimino]-N-(1-methylcyclopropyl)-3-[(1-methylpyrazol-4-yl)methyl]-4-oxo-1H-quinazoline-6-sulfonamide]",2 to 9 µM,> 2 µM,
"CO/N=c1\[nH]c2c(-c3ccc(C(=O)N(C)C)cc3)cc(S(=O)(=O)NC3(C)CC3)cc2c(=O)n1Cc1cnn(C)c1 [Example 5, 4-[2-methoxyimino-6-[(1-methylcyclopropyl)sulfamoyl]-3-[(1-methylpyrazol-4-yl)methyl]-4-oxo-1H-quinazolin-8-yl]-N,N-dimethyl-benzamide]",0.5 to 2 µM,> 2 µM,
"CO/N=c1\[nH]c2c(N3CCN[C@H](C)C3)cc(S(=O)(=O)NC3(C)CC3)cc2c(=O)n1Cc1cnn(C)c1 [Example 7, 2-methoxyimino-N-(1-methylcyclopropyl)-3-[(1-methylpyrazol-4-yl)methyl]-4-oxo-8-[(3R)-3-methylpiperazin-1-yl]-1H-quinazoline-6-sulfonamide]",0.5 to 2 µM,< 0.5 µM,
"CON=c1[nH]c2c(N3CCN(C(=O)C4(C)CC4)[C@H](C)C3)cc(S(=O)(=O)NC3(C)CC3)cc2c(=O)n1Cc1cnn(C)c1 [Example 8, 2-methoxyimino-N-(1-methylcyclopropyl)-3-[(1-methylpyrazol-4-yl)methyl]-4-oxo-8-[(3R)-3-methyl-4-(1-methylcyclopropanecarbonyl)piperazin-1-yl]-1H-quinazoline-6-sulfonamide]",< 0.5 µM,,< 0.5 µM
"CO/N=c1\[nH]c2ccc(S(=O)(=O)NC3(C)CC3)cc2c(=O)n1Cc1cnc(C)s1 [Example 1, 2-methoxyimino-N-(1-methylcyclopropyl)-3-[(2-methylthiazol-5-yl)methyl]-4-oxo-1H-quinazoline-6-sulfonamide]",0.5 to 2 µM,0.5 to 2 µM,
